pEC50: −log10 of the molar value. Where two headings read alike, the source gives them in different places.
What was measured:
RyR1 [1] = biological target: T1, RyR1 (Sus scrofa, UniProt P16960); experiment: [3H]ryanodine binding to skeletal SR (HSR) vesicles; type: biochemical, pig; conditions: for pEC50: Table S4, read-out: EC50, [3H]ryanodine binding, skeletal HSR
T1 construct: from tissue; host or cells: porcine longissimus dorsi muscle, heavy SR vesicles
Description: Crude sarcoplasmic reticulum membrane vesicles were isolated from porcine longissimus dorsi muscle and porcine cardiac left ventricle tissue by differential centrifugation of homogenized tissue, as established previously ([65]). Skeletal heavy SR (HSR) vesicles, which are enriched with RyR1, were isolated by fractionation of crude skeletal SR vesicles using a discontinuous sucrose gradient, in accordance with our published work ([65]). All vesicles were flash-frozen and stored at −80 °C.
In 96-well plates, skeletal SR membranes (HSR, 1 mg/ml) and cardiac SR membranes (CSR, 3 mg/ml) were preincubated with 1% DMSO or hit compound for 30 min at 22 °C in a solution containing 150 mM KCl, 5 mM GSH, 1 μg/ml Aprotinin/Leupeptin, 1 mM EGTA, and 65 μM or 1.02 mM CaCl2 (as determined by MaxChelator to yield 30 nM or 30 μM of free Ca^2+, respectively), 0.1 mg/ml of BSA, and 20 mM K-PIPES (pH 7.0). Nonspecific [^3H]ryanodine binding to SR was assessed by addition of 40 μM nonradioactively labeled ryanodine. Maximal [^3H]ryanodine binding was assessed by addition of 5 mM adenylyl-imidodiphosphate (AMP-PNP), and in the case of CSR, 20 mM caffeine was added. These control samples were each loaded over four wells per plate. Binding of [^3H]ryanodine (7.5 and 10 nM for CSR and HSR, respectively) was determined following a 3 h incubation at 37 °C and filtration through grade GF/B glass microfiber filters (Brandel Inc) using a Brandel Harvester. In 4 ml of Ecolite scintillation cocktail (MP biomedicals), [^3H]ryanodine retained on the filter was counted using a Beckman LS6000 scintillation counter.

RyR1 [2] = biological target: T2, RyR1 (Rattus norvegicus, UniProt F1LMY4); experiment: t-tubule Ca2+ measurement of RyR1 leak in skinned skeletal muscle fibers; type: cell-based; conditions: 10 μM FA or 1 mM tetracaine, [Ca2+]cyto 200 nM
T2 construct: from tissue; host or cells: Wistar rat extensor digitorum longus (EDL), mechanically skinned single fibres
Description: All experimental methods using rodents were approved by the Animal Ethics Committees at The University of Queensland and were performed in accordance with the relevant guidelines and regulations. Five-month-old Wistar rats (UQ Biological Resources) were euthanized by asphyxiation via CO2 exposure, and the extensor digitorum longus (EDL) was rapidly excised. Once dissected, muscles were pinned to Sylgard set in a Petri dish containing paraffin oil.
Bundles of fibers were isolated and exposed to an internal solution containing rhod-5N, as described previously ([47]). After 15 min incubation, single skeletal muscle fibers were mechanically skinned and mounted in a custom-made chamber. […] For tracking Ca^2+ movements across the t-system membrane, images were continuously recorded in xyt mode with an aspect ratio of 256 × 512, with the long aspect of the image parallel with that of the preparation. Temporal resolution of imaging in this mode where the fluorescence signal was within the borders of the fiber was 0.8 s.
T-system rhod-5N fluorescence was converted to [Ca^2+]t-sys as previously described ([47]). To determine the effect of RyR modulators on the RyR Ca^2+ leak, isolated mechanically skinned fibers were continuously imaged as described above, to obtain a record of t-system rhod-5N fluorescence changes over time as the cytoplasmic solution bathing the fiber was changed. […]

[3] = tested on: rat skeletal muscle fibers; experiment: Electrically evoked Ca2+ transients in skinned skeletal muscle fibers; type: cell-based; conditions: 10 μM FA or 1 mM tetracaine, 1 Hz
Text: Mechanically skinned fibers were isolated, mounted in a custom chamber, and bathed in a resting physiological solution containing rhod-2, as previously described ([21]). The Ca^2+-sensitive dye rhod-2 was used to track cytosolic Ca^2+ transients when exposed to electrical stimulation. Field pulses at 1 Hz frequency and 4 ms in duration were applied across platinum electrodes parallel to the long axis of the fiber. Imaging for electrical stimulation experiments was in xt mode, at a rate of 2 ms.line^−1. DMSO vehicle (0.01%), FA (10 μM), and tetracaine were added to the physiological solution. Each treatment was applied precisely at the seventh successive Ca^2+ transient.

T1 sequence (P16960 whole entry): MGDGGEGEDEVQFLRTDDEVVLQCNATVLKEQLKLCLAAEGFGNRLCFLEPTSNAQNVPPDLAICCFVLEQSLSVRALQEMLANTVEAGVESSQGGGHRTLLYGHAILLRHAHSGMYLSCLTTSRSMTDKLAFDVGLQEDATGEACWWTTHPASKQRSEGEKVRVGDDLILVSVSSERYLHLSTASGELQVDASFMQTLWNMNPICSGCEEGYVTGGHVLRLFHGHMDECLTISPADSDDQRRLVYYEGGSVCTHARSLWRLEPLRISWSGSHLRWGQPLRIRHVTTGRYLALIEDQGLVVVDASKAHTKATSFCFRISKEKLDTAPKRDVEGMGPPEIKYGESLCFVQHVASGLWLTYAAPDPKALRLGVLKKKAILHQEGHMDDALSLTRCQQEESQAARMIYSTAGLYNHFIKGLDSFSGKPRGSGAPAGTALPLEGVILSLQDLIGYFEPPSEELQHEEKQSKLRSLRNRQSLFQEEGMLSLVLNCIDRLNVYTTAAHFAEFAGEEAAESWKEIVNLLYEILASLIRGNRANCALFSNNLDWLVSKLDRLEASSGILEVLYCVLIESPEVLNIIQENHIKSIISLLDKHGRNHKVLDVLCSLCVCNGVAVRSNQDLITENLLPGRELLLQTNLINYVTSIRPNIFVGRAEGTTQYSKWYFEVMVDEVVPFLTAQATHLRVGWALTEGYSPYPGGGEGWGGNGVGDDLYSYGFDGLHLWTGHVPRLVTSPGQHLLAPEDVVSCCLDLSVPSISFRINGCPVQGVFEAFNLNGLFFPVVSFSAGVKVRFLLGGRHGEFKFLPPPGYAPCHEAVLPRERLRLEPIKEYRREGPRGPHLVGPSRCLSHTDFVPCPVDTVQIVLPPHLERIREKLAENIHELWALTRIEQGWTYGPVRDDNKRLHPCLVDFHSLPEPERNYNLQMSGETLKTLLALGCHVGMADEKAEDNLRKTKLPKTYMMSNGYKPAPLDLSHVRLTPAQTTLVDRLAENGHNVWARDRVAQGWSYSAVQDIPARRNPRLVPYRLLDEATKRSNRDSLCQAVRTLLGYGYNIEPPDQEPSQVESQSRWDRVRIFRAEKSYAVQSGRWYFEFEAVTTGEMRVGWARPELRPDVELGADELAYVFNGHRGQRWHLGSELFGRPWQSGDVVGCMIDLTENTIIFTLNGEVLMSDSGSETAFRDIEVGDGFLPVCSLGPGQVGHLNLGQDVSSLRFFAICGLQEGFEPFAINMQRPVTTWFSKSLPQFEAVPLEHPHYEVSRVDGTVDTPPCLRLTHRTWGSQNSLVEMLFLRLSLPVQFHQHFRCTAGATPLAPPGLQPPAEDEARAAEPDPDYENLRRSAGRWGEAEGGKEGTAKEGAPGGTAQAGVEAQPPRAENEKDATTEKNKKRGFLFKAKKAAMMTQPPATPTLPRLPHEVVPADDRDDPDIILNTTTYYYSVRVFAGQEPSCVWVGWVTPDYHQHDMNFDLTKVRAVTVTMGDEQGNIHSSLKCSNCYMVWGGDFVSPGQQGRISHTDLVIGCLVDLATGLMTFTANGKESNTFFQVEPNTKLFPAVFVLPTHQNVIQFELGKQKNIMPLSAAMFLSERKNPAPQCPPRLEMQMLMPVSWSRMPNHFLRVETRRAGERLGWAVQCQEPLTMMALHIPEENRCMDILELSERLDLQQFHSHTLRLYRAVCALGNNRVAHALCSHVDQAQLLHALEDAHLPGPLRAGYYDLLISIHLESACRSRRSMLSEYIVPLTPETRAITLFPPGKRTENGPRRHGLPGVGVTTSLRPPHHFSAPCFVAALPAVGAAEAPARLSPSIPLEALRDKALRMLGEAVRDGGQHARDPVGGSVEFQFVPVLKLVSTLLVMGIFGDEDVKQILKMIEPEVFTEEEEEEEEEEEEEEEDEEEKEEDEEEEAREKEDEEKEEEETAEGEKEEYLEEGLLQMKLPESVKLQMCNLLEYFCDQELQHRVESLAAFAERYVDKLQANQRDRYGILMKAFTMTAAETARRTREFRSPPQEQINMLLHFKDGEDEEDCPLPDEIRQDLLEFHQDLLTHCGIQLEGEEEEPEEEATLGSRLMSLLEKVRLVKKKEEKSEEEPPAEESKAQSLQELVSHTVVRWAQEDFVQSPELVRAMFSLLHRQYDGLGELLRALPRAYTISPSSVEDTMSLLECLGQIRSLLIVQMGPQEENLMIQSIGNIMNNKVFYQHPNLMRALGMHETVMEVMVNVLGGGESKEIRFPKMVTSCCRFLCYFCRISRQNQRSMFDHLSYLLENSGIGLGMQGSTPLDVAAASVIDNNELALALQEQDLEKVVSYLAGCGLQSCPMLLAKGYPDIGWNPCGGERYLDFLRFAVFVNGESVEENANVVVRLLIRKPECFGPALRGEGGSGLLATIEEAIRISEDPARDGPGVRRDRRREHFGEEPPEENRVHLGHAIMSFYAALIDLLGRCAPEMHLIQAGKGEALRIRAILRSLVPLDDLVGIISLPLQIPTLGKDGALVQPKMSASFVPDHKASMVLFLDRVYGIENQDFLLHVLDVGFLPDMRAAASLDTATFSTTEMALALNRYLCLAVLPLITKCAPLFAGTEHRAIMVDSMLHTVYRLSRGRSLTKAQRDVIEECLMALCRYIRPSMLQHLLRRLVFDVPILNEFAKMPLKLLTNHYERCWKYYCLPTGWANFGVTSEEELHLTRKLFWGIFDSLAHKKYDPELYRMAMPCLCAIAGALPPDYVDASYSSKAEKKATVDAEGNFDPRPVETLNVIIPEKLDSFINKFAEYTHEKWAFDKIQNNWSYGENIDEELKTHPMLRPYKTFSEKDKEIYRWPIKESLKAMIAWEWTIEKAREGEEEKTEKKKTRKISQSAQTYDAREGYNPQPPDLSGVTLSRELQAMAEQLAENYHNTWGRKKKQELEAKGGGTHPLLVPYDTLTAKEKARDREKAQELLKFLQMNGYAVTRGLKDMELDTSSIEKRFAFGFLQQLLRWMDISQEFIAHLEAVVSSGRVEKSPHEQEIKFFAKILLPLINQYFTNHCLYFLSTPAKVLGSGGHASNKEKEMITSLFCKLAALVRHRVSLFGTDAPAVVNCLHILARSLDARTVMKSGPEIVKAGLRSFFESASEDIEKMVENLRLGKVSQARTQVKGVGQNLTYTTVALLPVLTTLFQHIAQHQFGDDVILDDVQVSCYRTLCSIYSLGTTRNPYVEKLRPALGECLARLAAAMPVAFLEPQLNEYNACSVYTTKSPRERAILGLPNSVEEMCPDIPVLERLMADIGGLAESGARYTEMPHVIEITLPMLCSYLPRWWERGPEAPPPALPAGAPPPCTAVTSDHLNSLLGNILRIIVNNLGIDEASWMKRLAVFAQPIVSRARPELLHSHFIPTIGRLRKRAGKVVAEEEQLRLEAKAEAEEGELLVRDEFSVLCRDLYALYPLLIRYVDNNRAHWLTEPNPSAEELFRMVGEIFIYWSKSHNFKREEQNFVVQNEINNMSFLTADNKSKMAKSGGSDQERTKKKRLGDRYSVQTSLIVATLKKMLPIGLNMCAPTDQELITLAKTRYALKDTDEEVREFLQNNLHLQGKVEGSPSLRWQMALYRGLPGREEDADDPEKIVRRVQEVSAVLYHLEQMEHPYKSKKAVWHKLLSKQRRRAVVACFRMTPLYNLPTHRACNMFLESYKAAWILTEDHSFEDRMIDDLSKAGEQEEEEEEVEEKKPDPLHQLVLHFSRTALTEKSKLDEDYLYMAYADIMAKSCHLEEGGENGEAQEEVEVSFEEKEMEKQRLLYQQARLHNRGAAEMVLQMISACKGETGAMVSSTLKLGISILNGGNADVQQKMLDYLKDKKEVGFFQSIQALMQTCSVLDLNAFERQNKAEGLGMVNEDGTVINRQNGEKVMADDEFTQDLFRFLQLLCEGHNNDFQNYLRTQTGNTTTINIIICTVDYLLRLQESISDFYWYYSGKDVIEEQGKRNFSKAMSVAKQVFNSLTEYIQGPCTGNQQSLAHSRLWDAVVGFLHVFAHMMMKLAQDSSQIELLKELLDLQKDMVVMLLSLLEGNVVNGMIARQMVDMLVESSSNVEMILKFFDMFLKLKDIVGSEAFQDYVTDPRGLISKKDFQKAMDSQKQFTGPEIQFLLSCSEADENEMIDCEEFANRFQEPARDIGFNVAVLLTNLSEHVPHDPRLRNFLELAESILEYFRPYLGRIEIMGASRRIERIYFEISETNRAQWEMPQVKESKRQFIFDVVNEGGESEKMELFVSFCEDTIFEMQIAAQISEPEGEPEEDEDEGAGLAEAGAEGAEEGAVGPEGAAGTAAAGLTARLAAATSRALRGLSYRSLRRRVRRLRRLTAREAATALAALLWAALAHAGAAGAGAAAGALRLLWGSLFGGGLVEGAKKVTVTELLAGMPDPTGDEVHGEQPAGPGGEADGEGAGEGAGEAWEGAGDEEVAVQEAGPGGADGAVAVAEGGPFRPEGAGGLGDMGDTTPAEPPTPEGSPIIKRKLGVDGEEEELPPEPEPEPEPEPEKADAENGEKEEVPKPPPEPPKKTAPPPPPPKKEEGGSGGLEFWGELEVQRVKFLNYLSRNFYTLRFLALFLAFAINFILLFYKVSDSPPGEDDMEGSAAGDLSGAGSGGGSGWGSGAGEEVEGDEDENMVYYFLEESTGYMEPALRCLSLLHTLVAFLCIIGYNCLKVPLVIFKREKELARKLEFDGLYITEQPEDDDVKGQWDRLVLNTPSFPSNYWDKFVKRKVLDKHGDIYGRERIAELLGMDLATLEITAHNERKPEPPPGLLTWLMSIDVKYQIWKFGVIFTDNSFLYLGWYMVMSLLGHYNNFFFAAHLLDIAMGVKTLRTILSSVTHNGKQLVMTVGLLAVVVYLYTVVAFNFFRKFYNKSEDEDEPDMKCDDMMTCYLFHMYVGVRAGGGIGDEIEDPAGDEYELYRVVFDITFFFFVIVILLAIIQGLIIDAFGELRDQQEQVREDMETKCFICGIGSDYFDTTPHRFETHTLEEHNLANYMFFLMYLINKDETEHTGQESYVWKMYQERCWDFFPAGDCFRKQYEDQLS

CC(=O)O[C@H]1C[C@@]2(C)[C@@H](C[C@@H](O)[C@H]3[C@@]4(C)CC[C@@H](O)[C@@H](C)[C@@H]4CC[C@@]32C)/C1=C(\CCC=C(C)C)C(=O)O [FA, (2Z)-2-[(3R,4S,5S,8S,9S,10S,11R,13R,14S,16S)-16-acetyloxy-3,11-dihydroxy-4,8,10,14-tetramethyl-2,3,4,5,6,7,9,11,12,13,15,16-dodecahydro-1H-cyclopenta[a]phenanthren-17-ylidene]-6-methylhept-5-enoic acid]
pEC50 (RyR1 [1]; [Ca2+] 30 nM): 8.00
pEC50 (RyR1 [1]; [Ca2+], 30 µM): 4.68
maximum inhibitory effect on [3H]ryanodine binding (RyR1 [1]; skeletal SR, 30 nM Ca2+): ~50%
effect on [3H]ryanodine binding to RyR1 (RyR1 [1]; skeletal SR, 30 μM Ca2+): strongly increased
steady-state [Ca2+]t-sys (RyR1 leak) (RyR1 [2]): decreased
electrically induced Ca2+ transient amplitude [3]: did not have an effect

— paper PMC8689225, “Cardiac ryanodine receptor N-terminal region biosensors identify novel inhibitors via FRET-based high-throughput screening” (The Journal of Biological Chemistry, 2021)
